Measured values published in patent publication US11851389B2, “Cationic lipids for nucleic acid delivery and preparation thereof” (RAMOT AT TEL-AVIV UNIVERSITY LTD., priority 2016, dated 2023).

How the values were obtained:
[1] = LNP size distribution, PDI and ζ potential by dynamic light scattering; format: physicochemical; details: LNP-siRNA formulations; for PDI / Size (d · nm): DLS
Procedure: LNPs were prepared by using microfluidic micro mixture (Precision NanoSystems, Vancouver, BC, Canada) as described by Cohen et. al. One volume of lipid mixtures (cationic lipid, DSPC, Chol, DMG-PEG and DSPE-PEG Mal at 50:10:38:1.5:0.5 mole ratio, […] total lipid concentration) in ethanol and three volumes of siRNA (1:16 w/w siRNA to lipid) containing acetate buffer solutions were injected through the micro mixer at a combined flow rate of 2 mL/minute (0.5 mL/min for ethanol and 1.5 mL/min for aqueous buffer). For labeled LNPs, 10% of Alexa-647 labeled siRNA were incorporated. For Cy5 labeled particles, 10% Cy5 labeled non-targeted siRNA was used. The resultant mixture was dialyzed against PBS (pH 7.4) for 16 h to remove ethanol.
LNPs size distribution and ζ potential were determined by dynamic light scattering using a Malvern nano ZS ζ-sizer (Malvern instruments, UK). For size measurements, LNPs were diluted 1:20 in PBS. […] For ζ potential measurements, LNPs were diluted 1:200 in DDW. In some cases, as indicated, size and zeta potential measurements were performed in water.

HEK 293 cells = assay: In vitro expression of mKATE-pDNA, flow cytometry; format: cell-based; details: 72 hr; for mKATE expression: HEK 293, 0.6 nM pDNA
Procedure: In vitro expression of pDNA in HEK 293 cells: HEK cells were treated with LNPs composed of either lipid1 or lipid 10 encapsulated with mKATE-pDNA at the concentration of 0.6 nM pDNA. After 72 hr, mKATE expression was analyzed by flow cytometry.
Dose dependent expression of pDNA in HEK 293 cells: HEK cells were treated with LNPs composed of either lipid1 or lipid 10 encapsulated with mKATE-pDNA at different amount pDNA. After 72 hr, mKATE expression was analyzed by flow cytometry.

[2] = test system: Drug resistant human ovarian carcinoma cells (NAR); assay: PLK-1 expression by qPCR after LNP-siPLK-1 or LNP-siLuc; format: cell-based; details: 72 hrs
Procedure: (§1) The mRNA levels of pololike kinase 1 (PLK1 gene) in cells was quantified by real-time PCR, forty eight or Seventy-two hours post-transfection. Total RNA was isolated using the E-Z RNA purification kit (Biological industries, Beit Haemek, Israel), and 1 μg of RNA from each sample was reverse transcribed into cDNA using the High Capacity cDNA Reverse Transcription Kit (Applied Biosystems, Foster City, CA), Quantification of cDNA (5 ng total) was performed on the step one Sequence Detection System (Applied Biosystems, Foster City, CA) using syber green (Applied Biosystems). GAPDH was chosen as a housekeeping gene.
(§2) Supt1 or NAR or OVCAR cells were placed in tissue culture 12-wells plates at a density of 1×10^5 cells with 1 mL of full medium. LNPs containing different siRNAs (siPLK1 or siCD45 or siLUC) were added to the wells and the concentration was mentioned in figures. Cells were isolated at different time intervals mentioned in the figures and analyzed by either flow cytometry (for siCD45 knockdown), or qPCR for analysis of PLK1 silencing. Apoptosis assay using PI/Annexin was analyzed by flow cytometry in case of siPLK1 induced cell death.
Drug resistant human ovarian carcinoma cells (NAR) were treated with either LNP-siPLK-1 or LNP-siLuc nanoparticles Lipid 1 LNPs (A); Lipid 10&11 LNPs (B) for 72 hrs and PLK-1 expression was measured by qPCR as described in Example 1.

[3] = test system: Human ovarian cancer cells (NAR cells); assay: Apoptosis by FACS using PI/Annexin after siPLK1-LNPs; format: cell-based; details: 48 hr, PI/Annexin FACS
Procedure: as §2
Human ovarian cancer cells (NAR cells) were treated with lipid1/siPLK1 nanoparticles for 48 hr at different siRNA concentrations (0.2 μM and 0.1 μM). Apoptotic cells were analyzed by FACS using PI/Annexin. […] Percentage of early apoptotic cells was higher in cells treated with siPLK1-LNPs at 0.2 uM dose of siPLK1.
Human ovarian cancer cells (NAR cells) were treated with either lipid10 or lipid 11/siPLK1 nanoparticles for 48 hr at different siRNA concentrations (0.1 μM and 0.05 μM). siLUC-LNPs used as a negative control. Apoptotic cells were analyzed by FACS using PI/Annexin.

[4] = test system: Human colon carcinoma cells (HCT116); assay: Toxicity of LNPs with ctl siRNA, XTT cell viability; format: cell-based; details: 72 hrs
Procedure: Human colon carcinoma cells (HCT116) were incubated with LNPs with ctl siRNA (see methods) for 72 hrs. The cell viability was measured by XTT assay. Toxicity of LNPs composed of either lipid 38 or lipid 55 is compared with gold standard LNPs composed of Dlin-MC3-DMA.

[5] = test system: Human multiple myeloma suspension cells (U266); assay: PLK1 expression by qPCR after siPLK1-LNPs; format: cell-based; details: U266, 48 hrs, normalized to LNPs-ctl siRNA treated cells
Procedure: as §1
Human multiple myeloma suspension cells (U266) were incubated with LNPs containing siPLK1 at different concentrations for 48 hrs. PLK1 expression was measured by qPCR. PLK1-mRNA levels were normalized to LNPs-ctl siRNA treated cells.

[6] = test system: Human multiple myeloma suspension cells (U266); assay: Cell viability after PLK1 silencing, XTT assay; format: cell-based; details: U266, 48 hrs
Procedure: Human multiple myeloma suspension cells (U266) were incubated with siPLK1-LNPs or siCtl-LNPs composed of either lipid 38 or 55 at different concentrations for 48 hrs. Cell viability affected by PLK1 down regulation was measured by XTT assay.

[7] = test system: Human B-cell lymphoma suspension cells (RPMI-8226); assay: Cell viability after PLK1 silencing, XTT assay; format: cell-based; details: RPMI-8226, 48 hrs
Procedure: Human B-cell lymphoma suspension cells (RPMI-8226) were incubated with siPLK1-LNPs or siCtl-LNPs composed of either lipid 38 or 55 at different concentrations for 48 hrs. Cell viability affected by PLK1 down regulation was measured by XTT assay.

[8] = test system: Human multiple myeloma suspension cells (MM1); assay: Cell viability after PLK1 silencing, XTT assay; format: cell-based; details: MM1, 48 hrs
Procedure: Human multiple myeloma suspension cells (MM1) were incubated with siPLK1-LNPs or siCtl-LNPs composed of either lipid 38 or 55 at different concentrations for 48 hrs. Cell viability affected by PLK1 down regulation was measured by XTT assay.

## CCCCC/C=C\C/C=C\CCCCCCCCC(CCCCCCCC/C=C\C/C=C\CCCCC)OC(=O)CCCN(C)C [Dlin-MC3-DMA, reference compound]
[1]
  Zeta-potential (mV): −1 mV
  PDI: 0.18
  Size (d · nm): 44.5 nm
HEK 293 cells
  mKATE expression: did not show any effect on mKATE expression

## CCCCC/C=C\C/C=C\CCCCCCCCNN(CCCCCCCC/C=C\C/C=C\CCCCC)CCCCN(C)C [Lipid 2]
[1]
  Zeta-potential (mV): 13.9 mV
  PDI: 0.06
  Size (d · nm): 56.3 nm

## CCCCC/C=C\C/C=C\CCCCCCCCN(CCCCCCCC/C=C\C/C=C\CCCCC)OC(=O)CN(C)C [Lipid 9]
[1]
  Zeta-potential (mV): −13.6 mV
  PDI: 0.04
  Size (d · nm): 75.1 nm

## CCCCC/C=C\C/C=C\CCCCCCCCN(CCCCCCCC/C=C\C/C=C\CCCCC)NC(=O)CCCN(C)C [Lipid 10]
[1]
  Zeta-potential (mV): 18.5 mV
  PDI: 0.08
  Size (d · nm): 50.5 nm
[2]
  PLK-1 expression, LNP-siLuc control siRNA: no effect on plk1 expression
  PLK-1 expression, LNP-siPLK-1: down regulating plk1 gene efficiently at different doses
[3]
  Apoptosis induced by siPLK1-LNPs: efficiently downregulating PLK1 gene followed by inducing apoptosis in NAR cells
HEK 293 cells
  mKATE expression: mKATE expression was observed
HEK 293 cells; HEK 293, different amount pDNA
  Dose dependence of mKATE expression: dose dependent expression of mKATE

## CCCCC/C=C\C/C=C\CCCCCCCCN(CCCCCCCC/C=C\C/C=C\CCCCC)NC(=O)[C@@H](N)CCCCN(C)C [Lipid 11, 2-amino-6-(dimethylamino)-N′,N′-di((9Z,12Z)-octadeca-9,12-dien-1-yl)hexanehydrazide]
[1]
  Zeta-potential (mV): 20.4 mV
  PDI: 0.10
  Size (d · nm): 108.5 nm
[2]
  PLK-1 expression, LNP-siLuc control siRNA: no effect on plk1 expression
  PLK-1 expression, LNP-siPLK-1: down regulating plk1 gene efficiently at different doses
[3]
  Apoptosis induced by siPLK1-LNPs: efficiently downregulating PLK1 gene followed by inducing apoptosis in NAR cells

## CCCCC/C=C\C/C=C\CCCCCCCCN(CCCCCCCC/C=C\C/C=C\CCCCC)OC(=O)CCCN(C)C [Lipid 14]
[1]
  Zeta-potential (mV): −3.6 mV
  PDI: 0.09
  Size (d · nm): 44.3 nm

## CCCCC/C=C\C/C=C\CCCCCCCCN(CCCCCCCC/C=C\C/C=C\CCCCC)NCCN(C)C [Lipid 15]
[1]
  Zeta-potential (mV): 10.1 mV
  PDI: 0.11
  Size (d · nm): 52.5 nm

## CCCCC/C=C\C/C=C\CCCCCCCCN(CCCCCCCC/C=C\C/C=C\CCCCC)NC(=O)CCCN1CCN(C)CC1 [Lipid 21]
[1]
  Zeta-potential (mV): −2.8 mV
  PDI: 0.16
  Size (d · nm): 67.7 nm

## CCCCC/C=C\C/C=C\CCCCCCCCN(CCCCCCCC/C=C\C/C=C\CCCCC)OC(=O)Cc1c[nH]cn1 [Lipid 33]
[1]
  Zeta-potential (mV): −10.8 mV
  PDI: 0.15
  Size (d · nm): 46.0 nm

## CCCCC/C=C\C/C=C\CCCCCCCCN(CCCCCCCC/C=C\C/C=C\CCCCC)CCOC(=O)CCCN1CCN(C)CC1 [Lipid 55]
[1]
  Zeta-potential (mV): −1.28 mV
  PDI: 0.17
  Size (d · nm): 97.0 nm
[4]
  Toxicity of LNPs (cell viability): less toxic than LNPs composed of Dlin-MC3-DMA
[5]
  PLK1 expression, siPLK1-LNPs: efficiently down regulate
[6]
  Cell viability, siCtl-LNPs: no effect on the cell viability
  Cell viability, siPLK1-LNPs: more effect on cell viability compared to Dlin-MC3-DMA LNPs
[7]
  Cell viability, siCtl-LNPs: no effect on the cell viability
  Cell viability, siPLK1-LNPs: dose dependent effect on B-cell lymphoma cancer cell viability
[8]
  Cell viability, siCtl-LNPs: no effect on the cell viability
  Cell viability, siPLK1-LNPs: dose dependent effect on multiple myeloma cancer cell viability
